In patent US20250188506A1, “ANTICOAGULANT HEPARIN-CHONDROITIN CHIMERIC SACCHARIDE MOLECULE AS WELL AS PREPARATION METHOD AND APPLICATION THEREOF” (SHANDONG UNIVERSITY, priority 2023, published 2025):

How the values were obtained:
[1] = target: T1, PF4 (Homo sapiens, UniProt P02776)
T1 sequence (P02776 32-101): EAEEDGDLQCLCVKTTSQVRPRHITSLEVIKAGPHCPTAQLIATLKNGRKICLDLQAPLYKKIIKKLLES

[2] = test system: Xa factor; details: commercially available comparator, stated in advantages section; cited from earlier work

average particle size of compounds formed with PF4 [1]: 61.57 nm
Compound: CO[C@H]1O[C@H](COS(=O)(=O)O)[C@@H](O[C@@H]2O[C@@H](C(=O)O)[C@@H](O[C@H]3O[C@H](COS(=O)(=O)O)[C@@H](O[C@@H]4O[C@H](C(=O)O)[C@@H](O[C@H]5O[C@H](COS(=O)(=O)O)[C@@H](O)[C@H](O)[C@H]5NS(=O)(=O)O)[C@H](O)[C@H]4O)[C@H](OS(=O)(=O)O)[C@H]3NS(=O)(=O)O)[C@H](O)[C@H]2OS(=O)(=O)O)[C@H](O)[C@H]1NS(=O)(=O)O [fondaparinux, fondaparinux sodium]
neutralization of activity against the Xa factor by protamine (in words) [2]: almost completely not neutralized
